Paper PMC6277767, “Broad and Region-Specific Impacts of the Synthetic Cannabinoid CP 55,940 in Adolescent and Adult Female Mouse Brains” (Frontiers in Molecular Neuroscience, 2018)

Tested on: CD1 female mouse brain lipidome
Assay: Brain-region lipid levels (HPLC/MS/MS lipidomics) 2 h after single i.p. 3 mg/kg CP 55,940 vs vehicle
Assay type: in vivo
Set-up: N-arachidonoyl phenylalanine level, Mean / N-stearoyl tryptophan level, Mean / N-stearoyl proline level, Mean / N-stearoyl leucine level, Mean / N-stearoyl phenylalanine level, Mean / N-stearoyl serine level, Mean / N-stearoyl methionine level, Mean: unit: moles per gram
Procedure: The Bloomington Institutional Animal Care and Use Committee of Indiana University reviewed and approved the animal procedures. Female mice from the CD1 strain were utilized to match our study examining THC’s effects on the brain lipidome ([Leishman et al., 2018]). Mice were given a single i.p. injection of either 3 mg/kg CP or 1:1:18 cremophor:ethanol:saline vehicle (please refer to the section “3 mg/kg CP Is Relevant for Synthetic Cannabinoid Abuse and Has Stronger Effects on the Female Mouse Brain Lipidome During Adolescence” for a justification of dose and use of female mice). Three different age groups were given injections: PND 35 and PND 50 adolescents, and adult mice (PND 113). At least eight mice in each age group received CP and at least eight received vehicle. Matching the THC study time course ([Leishman et al., 2018]), mice were sacrificed via rapid decapitation 2 h after injection. Brains were immediately removed and flash-frozen in liquid nitrogen, and then stored at -80°C until dissections were performed. Brains were dissected on an ice-cold dissection plate into the following regions: STR, HIPP, CER, THAL, CTX, HYP, MID, and STEM. These abbreviations for these brain areas will be used exclusively when discussing the results generated by these specific dissections. Each dissected area was immediately placed in liquid nitrogen and then stored at -80°C until used for lipid extraction.
Tissue extracts were performed as previously described ([Bradshaw et al., 2006]; [Stuart et al., 2013]; [Raboune et al., 2014]; [Leishman et al., 2016a],[b], [2017], [2018]). First, samples were shock frozen in liquid nitrogen, weighed, and transferred to a centrifuge tube. The mass of the largest sample was multiplied by 50 to determine how many milliliters of HPLC-grade methanol (Fisher, Fair Lawn, NJ, United States) to add. Then, samples were spiked with 500 pmol deuterium-labeled NAGly (d8NAGly; Cayman Chemical, Ann Arbor, MI, United States). Samples were placed on ice in darkness for 2 h then individually homogenized and centrifuged at 19,000 × g for 20 min at 20°C. Supernatants were diluted with HPLC water (purified in house) to make a solution of 75% water, 25% supernatant. Lipids were partially purified on C18 solid phase extraction columns (Agilent, Palo Alto, CA, United States). A series of four elutions with 1.5 mL of 60%, 75%, 85%, and 100% methanol were collected ([Stuart et al., 2013]; [Leishman et al., 2016a],[b], [2018]).
As previously described ([Bradshaw et al., 2006]; [Tan et al., 2006]; [Smoum et al., 2010]; [Stuart et al., 2013]; [Tortoriello et al., 2013]; [Raboune et al., 2014]; [Leishman et al., 2016a],[b], [2017], [2018]), samples were analyzed using an Applied Biosystems API 3000 triple quadrupole mass spectrometer with electrospray ionization (Foster City, CA, United States). Using an Agilent XDB-C18 reversed phase analytical column and optimized mobile phase gradients, 20 μL from each elution were chromatographed. Two Shimadzu 10ADvp pumps (Columbia, MD, United States) provided the pressure for gradient elution. Mobile phase A: 20% methanol, 80% water (v/v) and 1 mM ammonium acetate (Sigma, St. Louis, MO, United States). Mobile phase B: 100% methanol, 1 mM ammonium acetate. Every method run began with 0% mobile phase B, reached 100% mobile phase B flowing at 0.2 mL/min, and gradually returned to 0% mobile phase B.
This screening library will be referred to as the lipidome when discussing data from this study. HPLC/MS/MS data were analyzed using Analyst software (Applied Biosystems) ([Bradshaw et al., 2006]; [Tan et al., 2006]; [Stuart et al., 2013]; [Tortoriello et al., 2013]; [Raboune et al., 2014]; [Leishman et al., 2016a],[b], [2017], [2018]). Chromatograms (Supplementary Figure 3) were generated by determining the retention time of analytes from the analytical column with a [M-1] or [M+1] parent peak and a fragmentation peak corresponding to the programmed values. […]

[1] = hippocampus, PND 35 WT female mice, 3mg/kg CP 55,940
[2] = hypothalamus, PND 50, 3mg/kg CP 55,940
[3] = hypothalamus, PND 50 female mice, 3mg/kg CP 55,940

CCCCCCC(C)(C)c1ccc([C@@H]2C[C@H](O)CC[C@H]2CCCO)c(O)c1 [CP 55,940]
N-arachidonoyl tryptophan level, Mean [1]: BDL
N-arachidonoyl tyrosine level, Mean [1]: 7.88E-13
N-docosahexaenoyl GABA level, Mean [1]: 9.2E-13
N-docosahexaenoyl alanine level, Mean [1]: 5.16E-12
N-docosahexaenoyl ethanolamine level, Mean [1]: 3.15E-11
N-docosahexaenoyl glycine level, Mean [1]: 1.89E-11
N-docosahexaenoyl leucine level, Mean [1]: 7.64E-13
N-docosahexaenoyl methionine level, Mean [1]: BDL
N-docosahexaenoyl phenylalanine level, Mean [1]: 1.25E-12
N-docosahexaenoyl proline level, Mean [1]: BDL
N-docosahexaenoyl serine level, Mean [1]: 2.42E-11
N-docosahexaenoyl tryptophan level, Mean [1]: BDL
N-docosahexaenoyl tyrosine level, Mean [1]: PISSR
N-docosahexaenoyl valine level, Mean [1]: PISSR
N-linoleoyl GABA level, Mean [1]: 4.99E-13
N-linoleoyl alanine level, Mean [1]: 2.58E-12
N-linoleoyl ethanolamine level, Mean [1]: 6.76E-11
N-linoleoyl glycine level, Mean [1]: 5.29E-12
N-linoleoyl leucine level, Mean [1]: 3.89E-13
N-linoleoyl methionine level, Mean [1]: BDL
N-linoleoyl phenylalanine level, Mean [1]: 2.51E-13
N-linoleoyl proline level, Mean [1]: BDL
N-linoleoyl serine level, Mean [1]: 8.04E-11
N-linoleoyl tryptophan level, Mean [1]: BDL
N-linoleoyl tyrosine level, Mean [1]: PISSR
N-linoleoyl valine level, Mean [1]: PISSR
N-nervonoyl valine level, Mean [1]: BDL
N-oleoyl GABA level, Mean [1]: 2.89E-12
N-oleoyl alanine level, Mean [1]: 1.01E-11
N-oleoyl dopamine level, Mean [1]: BDL
N-oleoyl ethanolamine level, Mean [1]: 1.48E-10
N-oleoyl glycine level, Mean [1]: 2.1E-11
N-oleoyl leucine level, Mean [1]: 1.71E-12
N-oleoyl methionine level, Mean [1]: 8.45E-13
N-oleoyl phenylalanine level, Mean [1]: 1.23E-12
N-oleoyl proline level, Mean [1]: PISSR
N-oleoyl serine level, Mean [1]: 3.91E-10
N-oleoyl tryptophan level, Mean [1]: PISSR
N-oleoyl tyrosine level, Mean [1]: 3.7E-13
N-oleoyl valine level, Mean [1]: 7.17E-13
N-palmitoyl GABA level, Mean [1]: 5.66E-12
N-palmitoyl alanine level, Mean [1]: 1.96E-11
N-palmitoyl ethanolamine level, Mean [1]: 6.04E-11
N-palmitoyl glycine level, Mean [1]: 4.65E-11
N-palmitoyl leucine level, Mean [1]: 4.19E-12
N-palmitoyl methionine level, Mean [1]: PISSR
N-palmitoyl phenylalanine level, Mean [1]: 2.85E-12
N-palmitoyl proline level, Mean [1]: 1.75E-12
N-palmitoyl serine level, Mean [1]: 7.46E-11
N-palmitoyl tryptophan level, Mean [1]: 4.02E-13
N-palmitoyl tyrosine level, Mean [1]: 1.11E-12
N-palmitoyl valine level, Mean [1]: 1.58E-12
N-stearoyl GABA level, Mean [1]: 5.59E-12
N-stearoyl alanine level, Mean [1]: 1.75E-11
N-stearoyl ethanolamine level, Mean [1]: 1.72E-11
N-stearoyl glycine level, Mean [1]: 2.5E-11
N-stearoyl leucine level, Mean [1]: 1.77E-12
N-stearoyl methionine level, Mean [1]: 1.74E-12
N-stearoyl phenylalanine level, Mean [1]: 2.56E-12
N-stearoyl serine level, Mean [1]: 3.13E-11
N-stearoyl tryptophan level, Mean [1]: 1.25E-12
N-stearoyl tyrosine level, Mean [1]: 1.27E-13
Oleic acid level, Mean [1]: 2.69E-09
PGE2 level, Mean [1]: 1.12E-09
PhosphoLEA level, Mean [1]: 2.75E-11
THC level, Mean [1]: BDL
2-arachidonoyl glycerol, Direction (relative to Veh) [2]: ↓
N-arachidonoyl phenylalanine, Direction (relative to Veh) [2]: ↓
N-palmitoyl leucine, Direction (relative to Veh) [2]: ↑
PGF2α Direction (relative to Veh) [2]: ↑
PGF2α Magnitude (x Veh level) (hypothalamus, PND 50, 3mg/kg CP 55,940, ANOVA p .005): 1.49 x Veh level
N-arachidonoyl phenylalanine, Magnitude (x Veh level) (hypothalamus, PND 50, 3mg/kg CP 55,940, ANOVA p .013): 0.70 x Veh level
N-palmitoyl leucine, Magnitude (x Veh level) (hypothalamus, PND 50, 3mg/kg CP 55,940, ANOVA p .022): 1.34 x Veh level
2-arachidonoyl glycerol, Magnitude (x Veh level) (hypothalamus, PND 50, 3mg/kg CP 55,940, ANOVA p .033): 0.80 x Veh level
2-arachidonoyl glycerol level, Mean [3]: 2.57E-10
2-linoleoyl glycerol level, Mean [3]: 1E-10
2-oleoyl glycerol level, Mean [3]: 1.24E-09
2-palmitoyl glycerol level, Mean [3]: 2.63E-09
6-ketoPGF1α level, Mean [3]: 1.26E-11
11-OH-THC level, Mean [3]: BDL
11-nor-9-carboxyTHC level, Mean [3]: BDL
Arachidonic acid level, Mean [3]: 1.92E-10
Cannabidiol level, Mean [3]: BDL
Linoleic acid level, Mean [3]: 1.86E-10
N- stearoyl valine level, Mean [3]: PISSR
N-arachidonoyl GABA level, Mean [3]: 6.6E-12
N-arachidonoyl alanine level, Mean [3]: PISSR
N-arachidonoyl dopamine level, Mean [3]: BDL
N-arachidonoyl ethanolamine level, Mean [3]: 2.54E-11
N-arachidonoyl glycine level, Mean [3]: 4.44E-13
N-arachidonoyl methionine level, Mean [3]: BDL
N-arachidonoyl phenylalanine level, Mean [3]: 3.4E-13
N-arachidonoyl proline level, Mean [3]: BDL
N-arachidonoyl serine level, Mean [3]: PISSR
N-arachidonoyl taurine level, Mean [3]: 6.54E-12
N-arachidonoyl tryptophan level, Mean [3]: BDL
N-arachidonoyl tyrosine level, Mean [3]: BDL
N-docosahexaenoyl GABA level, Mean [3]: PISSR
N-docosahexaenoyl alanine level, Mean [3]: PISSR
N-docosahexaenoyl ethanolamine level, Mean [3]: 3.64E-11
N-docosahexaenoyl glycine level, Mean [3]: 1.54E-13
N-docosahexaenoyl leucine level, Mean [3]: PISSR
